Measured values published in publication PMC11625747, “The antipsychotic drug lurasidone inhibits coronaviruses by affecting multiple targets” (Frontiers in Cellular and Infection Microbiology, 2024).
Where “and” joins values, the source holds several entries; their conditions need not be identical. Equal entries are not always repeated. Where two headings read alike, the source gives them in different places.

How the values were obtained:
SARS-CoV-2 [1] = experiment: microbe, parasite or virus in culture; type: cell-based
SARS-CoV-2 [2] = experiment: SARS-CoV-2 virus inactivation (virucidal) assay; type: cell-based; conditions: 5 μM incubated with SARS-CoV-2 for 2 hours, Vero E6 plaque assay
[3] = Cell viability, MTT assay; type: cell-based, Human; conditions: human, HEK293-ACE2 cells, 10 µM, 24 hours administration
Procedure: (§1) HEK293-ACE2 cells were seeded (2 x 10^4 cells/well) on 96-well plates in a complete DMEM medium with 10% FBS. After incubation for 24 hours at 37°C in humidified 5% CO2, the medium was replaced with a fresh one containing lurasidone previously dissolved in Milli-Q water at 0.1 – 100 µM. Control cells were treated with an equivalent volume of vehicle only. Cells were incubated for 24 hours at 37°C in humidified 5% CO2, then the medium was replaced with a fresh one without lurasidone. After an additional incubation of 24 hours at 37°C in humidified 5% CO2, HEK293-ACE2 cells were treated with 5 mg/ml 3-(4,5-dimethylthiazol-2-yl)-2,5 diphenyltetrazolium bromide (MTT) (Sigma Aldrich, St. Louis, MO, USA, #M5655-1G) in 5 mM Phosphate Buffered Saline (PBS), pH 7.4. After incubation for 4 hours at 37°C, MTT was removed, and the cells resuspended in isopropanol containing 0.04 M HCl. The absorbance of the samples was determined at 560 nm using a spectrophotometer (Infinite M200, Tecan, Männedorf, Switzerland), and the cell viability was expressed as a percentage of Vehicle-treated cells.

HEK293-ACE2 cells = experiment: Cell viability, MTT assay; type: cell-based, Human; conditions: 100 µM (maximum tested dose), 24 hours administration
Procedure: as §1

[4] = test system: lentiviral vector exposing the SARS-CoV-2 Spike protein, Wuhan isoform; type: cell-based; conditions: 5 µM, 4 h pre-incubation, HEK293-ACE2, Wuhan Spike
[5] = test system: lentiviral vector exposing the SARS-CoV-2 Spike protein, B.1.1.7 UK isoform; type: cell-based; conditions: 1 µM, 4 h pre-incubation, HEK293-ACE2, B.1.1.7 UK Spike
[6] = test system: lentiviral vector exposing the SARS-CoV-2 Spike protein, B.1.351 SA isoform; type: cell-based; conditions: 1 or 5 µM, 4 h pre-incubation, HEK293-ACE2, B.1.351 SA Spike
[7] = test system: ACE2 levels in HEK293-ACE2 cells; experiment: Western blot analysis of ACE2 expression; type: cell-based, Human; conditions: 5 µM, 24 h, HEK293-ACE2 cell lysates
Procedure: HEK293-ACE2 cells were seeded (2.4 x 10^5 cells/well) on 12-well plates in complete DMEM medium with 10% FBS and incubated for 24 hours at 37°C in humidified 5% CO2. The medium was then replaced with a fresh one containing 5 µM lurasidone. Control cells were treated with an equivalent volume of vehicle only. After incubation for 3, 6, and 24 hours at 37°C in humidified 5% CO2 the medium was removed, the cells collected and lysed for 15 min at 4°C with 20 mM Tris-HCl, pH 7.5, containing 150 mM NaCl, 1 mM Na2EDTA, 1 mM EGTA, 1% NP-40, 1% sodium deoxycholate, 2.5 mM sodium pyrophosphate, 1 mM β-glycerophosphate, 1 mM Na3VO4 and 1 µg/ml leupeptin. Samples were centrifuged for 10 min at 16,100 x g and the protein content was quantified by using a BCA protein assay kit (Thermofisher, Rockford, USA). 10 µg of total proteins were loaded in each lane, immunoblotted using 10% bis-Tris gel (Invitrogen, Waltham, MA, USA), and transferred to a PVDF membrane (Millipore, Vimodrone, Milan, Italy). The membranes were incubated overnight at 4°C with an anti-ACE2 AC18Z mouse monoclonal antibody (1:200, Santa Cruz Biotechnology, Santa Cruz, CA, USA) or anti-β-actin mouse monoclonal antibody (1:5000, Sigma Aldrich). Peroxidase-conjugated anti-mouse IgG (1:5000, Sigma Aldrich) was used as the secondary antibody. Hybridization signals were detected with a ChemiDoc XRS Touch Imaging System (Bio-Rad).

[8] = molecular target: T1, recombinant human ACE2 (rhACE2) (Homo sapiens, UniProt Q9BYF1); experiment: Surface plasmon resonance direct binding assay; conditions: 10 µM injected on immobilized rhACE2
T1 construct: purchased Acrobiosystem
T1 sequence (Q9BYF1 18-805): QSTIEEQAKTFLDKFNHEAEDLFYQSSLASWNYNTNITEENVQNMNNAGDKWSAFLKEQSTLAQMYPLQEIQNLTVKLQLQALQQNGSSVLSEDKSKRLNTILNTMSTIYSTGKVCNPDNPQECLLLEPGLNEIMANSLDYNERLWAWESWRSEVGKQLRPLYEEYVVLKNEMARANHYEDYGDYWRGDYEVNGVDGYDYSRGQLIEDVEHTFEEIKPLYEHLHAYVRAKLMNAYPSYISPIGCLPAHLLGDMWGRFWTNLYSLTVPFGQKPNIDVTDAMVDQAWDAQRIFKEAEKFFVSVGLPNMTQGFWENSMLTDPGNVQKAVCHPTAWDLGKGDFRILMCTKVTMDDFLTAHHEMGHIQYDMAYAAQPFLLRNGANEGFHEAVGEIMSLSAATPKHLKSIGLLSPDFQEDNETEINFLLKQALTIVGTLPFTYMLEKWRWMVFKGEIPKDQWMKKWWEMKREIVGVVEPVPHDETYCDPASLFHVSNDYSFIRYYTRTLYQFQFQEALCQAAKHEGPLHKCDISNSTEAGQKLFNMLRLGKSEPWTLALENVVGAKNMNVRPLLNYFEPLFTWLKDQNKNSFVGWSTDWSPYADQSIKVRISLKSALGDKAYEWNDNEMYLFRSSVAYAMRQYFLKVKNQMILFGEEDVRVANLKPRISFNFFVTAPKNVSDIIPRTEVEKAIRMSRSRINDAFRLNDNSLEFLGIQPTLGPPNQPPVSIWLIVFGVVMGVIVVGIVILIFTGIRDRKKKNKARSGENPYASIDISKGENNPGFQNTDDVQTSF
Procedure: Recombinant human ACE2-Fc tag (rhACE2) (Acrobiosystem) at 5 μg/mL in PBST was captured on a HC30M (Xantec) sensor chip after the immobilization of anti-Fc antibody (Biorad) at 25 μg/mL in acetate buffer pH 5.0 by classic amine coupling chemistry on a NHS/EDC activated surface, reaching a final immobilization level of ~ 1000 RU. Simultaneously, a mix of IgG antibodies at 25 μg/mL in acetate buffer pH 5.0 was immobilized on a parallel surface and used as reference.
To test the direct binding of rhACE2 and lurasidone, the drug was injected at 10 µM in PBST 0.1% DMSO for 200 seconds at 30 μl/min on both surfaces. In a different channel, we also flowed SARS-CoV-2 Spike protein RBD (Wuhan isotype) at 10 nM in PBST as a positive control.

HCoV-OC43 [9] = experiment: HCoV-OC43 antiviral focus reduction assay; type: cell-based
Procedure: The antiviral efficacy of lurasidone was determined by focus reduction assay, as described elsewhere ([Milani et al., 2021]). Briefly, MRC-5 sub-confluent cells in 96-well plates were infected with HCoV-OC43 at a multiplicity of infection (MOI) of 0.001 FFU/cell and concurrently treated with increasing concentrations of drug (100 to 0.12 µM). After incubation at 34°C for 16 hours, infected foci were visualized with an indirect immunocytochemistry procedure, using a primary antibody directed against the nucleoprotein of HCoV-OC43 (MAB9013, Merck KGaA, Darmstadt, Germany) or a primary antibody directed against the dsRNA (10010500, Nordic-MUbio, Susteren, Netherlands).
(§2) All data were analyzed with GraphPad Prism version 8.00 software. Results were expressed as mean values for three independent experiments performed in duplicate. […] Selectivity indexes were calculated as SI = CC50/EC50. The Student’s T-test was used to compare viral titers in virus inactivation assay. The viral titers of control and treated samples in time-of-addition assays were compared using a one-way analysis of variance (ANOVA) and a post-hoc Bonferroni test. Significance was set at p value <0.05 (*), <0.01 (**) and <0.001 (***).

[10] = Cell viability assay on MRC-5 cells; type: cell-based; conditions: human, same conditions as antiviral assay
Procedure: Pre-seeded MRC-5 cells were treated with the drug at concentrations ranging from 1000 to 12.3 μM or equal volumes of DMSO as control, under the same experimental conditions for the antiviral assays. After incubation, the CellTiter 96 Proliferation Assay Kit (Promega, Madison, WI, USA) was used to determine the effect of lurasidone on cell viability. The effect on cell viability was expressed as a percentage, by comparing absorbances of treated cells with those of cells incubated with DMSO-treated control wells.
as §2

HCoV-OC43 [11] = experiment: HCoV-OC43 time-of-addition assay; type: cell-based; conditions: 50 µM; for antiviral activity, virus released in supernatant: MRC-5, MOI 0.1, 24 hours post-infection
HCoV-OC43 [12] = experiment: HCoV-OC43 virus inactivation assay; type: cell-based; conditions: 50 µM with 10^5 FFU for 2 h at 34°C
HCoV-OC43 [13] = experiment: HCoV-OC43 entry assay; type: cell-based; conditions: 100-0.4 μM during virus entry, MRC-5, MOI 0.05
Procedure: The assay evaluates whether the drug inhibits the entry of virus into host cells. First, a fixed inoculum of HCoV-OC43 at MOI of 0.05 was allowed to attach to prechilled confluent cells, for 20 min at 4°C. Cells were then washed with cold medium three times to remove unbound virus, treated with serial dilutions of lurasidone (from 100 to 0.4 μM), and incubated for 1 h at 34°C to allow virus entry. After incubation, outer virions were removed with a 30 second treatment of citrate buffer (pH 3.0). Then, cells were washed with warm medium three times and treated as for the antiviral assay.

PL-Pro SARS-CoV-2 = molecular target: T2, PL-Pro SARS-CoV-2 (Severe acute respiratory syndrome coronavirus 2, UniProt P0DTD1); experiment: Biochemical assay for SARS-CoV-2 PL-Pro
T2 construct: purified recombinant SARS-CoV-2 RdRp, 3CL-Pro and PL-Pro proteins

RdRp SARS-CoV-2 = molecular target: T3, RdRp SARS-CoV-2 (Severe acute respiratory syndrome coronavirus 2, UniProt P0DTD1); experiment: biochemical
T3 construct: SARS-CoV-2 RdRp was expressed and purified as described; made in house

3CL-Pro SARS-CoV-2 = molecular target: T4, 3CL-Pro SARS-CoV-2 (Severe acute respiratory syndrome coronavirus 2, UniProt P0DTD1); experiment: biochemical
T4 construct: The SARS-CoV-2 nsp5 protease activity was measured in black 384 well plates

[14] = set-up: method as in Bawa and Scarff, 2015; conditions: patients, minimal changes in the metabolic profile; ref Bawa and Scarff, 2015; cited from earlier work

## O=C1[C@@H]2[C@H]3CC[C@H](C3)[C@@H]2C(=O)N1C[C@@H]1CCCC[C@H]1CN1CCN(c2nsc3ccccc23)CC1 [Lurasidone, lurasidone]
SARS-CoV-2 [1]
  effect on viral replication: did not affect viral replication
  inhibition of viral replication: 78% and 79% and 40%
SARS-CoV-2 [1]; Severe acute respiratory syndrome coronavirus 2, 24 h, read-out: inhibition of viral replication
  inhibition at 5 µM: 76%
SARS-CoV-2 [2]
  virucidal activity: did not show any significant virucidal activity
[3]
  viability at 24 h, 10 µM: ~80%
HEK293-ACE2 cells
  toxicity: ~ 40%
[4]
  inhibition of transduction (GFP-positive cells): active
[5]
  inhibition of transduction (GFP-positive cells): able to inhibit
[6]
  inhibition of transduction (GFP-positive cells): not effective
[7]
  modification in the ACE2 levels: no significant modification
[8]
  direct binding to rhACE2 (SPR): not able to bind
HCoV-OC43 [9]; Betacoronavirus 1, OC43, MRC5, 16 h, read-out: EC50 (mean ± SD), viral marker NP (nucleoprotein), MRC-5 cells, MOI 0.001, 16 hours
  EC50: 8.3 µM
HCoV-OC43 [9]; Betacoronavirus 1, OC43, MRC5, 16 h, read-out: EC50 (mean ± SD), viral marker dsRNA, MRC-5 cells, MOI 0.001, 16 hours
  EC50: 8.5 µM
HCoV-OC43 [9]; Betacoronavirus 1, OC43, MRC5, read-out: EC90 (mean ± SD), viral marker NP (nucleoprotein), MRC-5 cells
  EC90: 23.5 µM
HCoV-OC43 [9]; Betacoronavirus 1, OC43, MRC5, read-out: EC90 (mean ± SD), viral marker dsRNA, MRC-5 cells
  EC90: 11.9 µM
HCoV-OC43 [9]; Betacoronavirus 1, OC43, both markers (NP and dsRNA)
  EC50: ~8 µM
HCoV-OC43 [9]; MRC-5 cells, HCoV-OC43
  EC99 dose: 50 µM
HCoV-OC43 [9]; viral marker NP
  SI (CC50/EC50): >120.5
HCoV-OC43 [9]; viral marker dsRNA
  SI (CC50/EC50): >117.6
[10]
  CC50: > 1000 µM
HCoV-OC43 [11]; 18 hours post-infection treatment, p < 0.001
  reduction of virus titer: significant reduction
HCoV-OC43 [11]; co-treatment 1 hour during virus inoculum
  antiviral activity, virus released in supernatant: not active
HCoV-OC43 [11]; post-treatment 1, 4, 18 hours after infection, MRC-5, MOI 0.1
  inhibition of virus production: significantly inhibited virus production
HCoV-OC43 [11]; pre-treatment 1 hour before infection
  antiviral activity, virus released in supernatant: not active
HCoV-OC43 [12]
  intrinsic virucidal activity: not endowed with intrinsic virucidal activity
HCoV-OC43 [13]
  inhibition of virus entry into the host cell: does not act during the early steps of virus infection
PL-Pro SARS-CoV-2
  IC50: 0.12 ± 0.03 µM
RdRp SARS-CoV-2; 50 nM enzyme
  IC50: > 100 µM
RdRp SARS-CoV-2; in the presence of 100 µM, read-out: Percentage of control activity, RdRp
  remaining activity at 100 µM: 100%
3CL-Pro SARS-CoV-2
  IC50: > 100 µM
3CL-Pro SARS-CoV-2; in the presence of 100 µM, read-out: Percentage of control activity, 3CL-Pro
  remaining activity at 100 µM: 87%
[14]
  tolerability in clinical trials: good tolerability
